In test [1] the test system is T47D-5R cells expressing Neu or Neu mutants (NYPD, YC, YD, YE). As to the kind of experiment: Transwell migration assay, HRG-induced. It counts as cell-based, human. The conditions noted are these: for HRG-induced migration of Neu cells: starting 4 hrs after HRG treatment, RNA or protein synthesis inhibitor. How it is done:
(§1) Cell migration was tested using 8 μm-pore polycarbonate membrane Transwell chambers (Corning Costar Products, Acton, Mass., USA) as described previously^3. In brief, the bottom side of the membrane was coated with 25 μg/ml rat tail collagen I (Roche). Serum starved cells were plated in the top Transwell chamber. Medium with or without 1 nM HRG-β1 (R&D systems, Inc., Minneapolis, Minn., USA) was added to the bottom chamber and cells were allowed to migrate for 24 hours. Non-migrated cells were scraped off the top of the membrane. Migrated cells were fixed in 4% formaldehyde and stained in 0.1% crystal violet. Cells were counted under a microscope in ten high power fields. Migration was expressed as cell number per mm^2. In some instances, cells were pre-incubated for 60 minutes with the U0126 MEK inhibitor (50 μM; Promega), the LY294002 PI3K inhibitor (50 μM; Calbiochem-Novabiochem Corporation, San Diego, Calif., USA), the SB203580 p38 MAPK inhibitor (20 μM; Calbiochem), a Src inhibitor (2.5 μM), the U-73122 PLC inhibitor (2 μM; Calbiochem), cycloheximide (10 μg/ml; Sigma) or 5,6-dichloro-1-β-D-ribofuranosylbenzimidazole (20 μg/ml; Fluka Chemie GmbH, Buchs, Switzerland). Cells were then allowed to migrate for 8 hours before counting.
(§2) Cells were transfected with siRNA using Oligofectamine (GIBCO) according to the manufacturer's instructions. The following 21-mer oligoribonucleotide pairs (obtained from Xeragon Inc., Huntsville, Ala., USA) were used: for Shc (accession number HSU7377) nucleotide 236 to 25640, for Memo (CGI-27; accession number AF132961) nucleotide 460 to 480 and for control LacZ (accession number M55068) nucleotide 4277 to 4297. Cells were plated for migration assay 3 days after siRNA transfection and allowed to migrate for 24 hours. Cell lysates were also prepared 3 and 4 days after transfection and analyzed by Western blotting using a specific anti-Shc antibody (BD Transduction laboratories, Heidelberg, Germany). For Memo, mRNA was extracted using RNeasy Mini (Qiagen, Cologne, Germany) and quantitative radioactive PCR^41 was performed using Memo specific primers (forward from nucleotide 90 to 111 and reverse from nucleotide 235 to 256).
Peptides were delivered into cells using Chariot protein transfection reagent (Active Motif, Rixensart, Belgium) according to the instruction manual. 16 aa-peptides spanning Tyr residue 1201 of Neu (YC peptide) and Tyr residue 1227 of Neu (YD peptide) were obtained from Neosystem (Strasbourg, France) in phosphorylated and non phosphorylated forms. Cells were plated for migration 30 minutes after peptide transfection and the assay was finished after 22 hours.

For the next test, the target named is T1, ErbB2 (Homo sapiens, UniProt P04626).
T1 construct: endogenous in cells; host or cells: SKBr3 breast carcinoma cells
Description: Shc immunoprecipitation in SKBr3 cells. It counts as cell-based.

The subject of test [2] is T47D and SKBr3 cells. As to the kind of experiment: Actin staining / lamellipodia morphology. It is filed as cell-based. Particulars: nocodazole-treated cells. How it is done: Cells were grown on glass coverslips (Falcon, Le Pont De Claix, France) coated with 25 μg/ml rat tail collagen I, serum starved overnight and stimulated with 1 nM HRG-β1 for different times. Cells were fixed in 4% formaldehyde in phosphate buffer saline (PBS) for 20 minutes, permeabilized in 0.2% Triton X-100 for 10 minutes, blocked with 1% bovine serum albumin in PBS for 20 minutes before addition of anti-Myc antibody (Santa Cruz) and Alexa-Fluor 568 goat anti-mouse IgG (Molecular Probes, Leiden, The Netherlands). DNA was counterstained with 0.25 mg/ml Hoechst No. 33342 (Sigma). Actin was stained for 45 minutes with 2 U/ml TRITC-labeled phalloidin (Molecular Probes). Images were recorded with an Axioskop Zeiss microscope coupled to a Sony 3CCD camera or an Olympus IX70 microscope linked to the DeltaVision workstation (Applied Precision, Issaquah, Wa)
F-actin was visualised with TRITC-labelled phalloidin.

Test [3] relates to T47D and SKBr3 cells. As to the kind of experiment: HRG-induced microtubule outgrowth. The conditions noted are these: nocodazole-treated cells. It is filed as cell-based.
The next test relates to T47D cells. Description: Transwell migration assay. It is filed as cell-based, human. Particulars: FIG. 1a, 7f. How it is done:
as §1
as §2, with “Cells were plated for migration assay 3 days after siRNA transfection and allowed to migrate for 24 hours.” left out

The record followed here is patent US20080081841A1, “Materials and Methods for Modulating Cell Motility” (priority 2003, published 2008).

T1 sequence (P04626 23-1255): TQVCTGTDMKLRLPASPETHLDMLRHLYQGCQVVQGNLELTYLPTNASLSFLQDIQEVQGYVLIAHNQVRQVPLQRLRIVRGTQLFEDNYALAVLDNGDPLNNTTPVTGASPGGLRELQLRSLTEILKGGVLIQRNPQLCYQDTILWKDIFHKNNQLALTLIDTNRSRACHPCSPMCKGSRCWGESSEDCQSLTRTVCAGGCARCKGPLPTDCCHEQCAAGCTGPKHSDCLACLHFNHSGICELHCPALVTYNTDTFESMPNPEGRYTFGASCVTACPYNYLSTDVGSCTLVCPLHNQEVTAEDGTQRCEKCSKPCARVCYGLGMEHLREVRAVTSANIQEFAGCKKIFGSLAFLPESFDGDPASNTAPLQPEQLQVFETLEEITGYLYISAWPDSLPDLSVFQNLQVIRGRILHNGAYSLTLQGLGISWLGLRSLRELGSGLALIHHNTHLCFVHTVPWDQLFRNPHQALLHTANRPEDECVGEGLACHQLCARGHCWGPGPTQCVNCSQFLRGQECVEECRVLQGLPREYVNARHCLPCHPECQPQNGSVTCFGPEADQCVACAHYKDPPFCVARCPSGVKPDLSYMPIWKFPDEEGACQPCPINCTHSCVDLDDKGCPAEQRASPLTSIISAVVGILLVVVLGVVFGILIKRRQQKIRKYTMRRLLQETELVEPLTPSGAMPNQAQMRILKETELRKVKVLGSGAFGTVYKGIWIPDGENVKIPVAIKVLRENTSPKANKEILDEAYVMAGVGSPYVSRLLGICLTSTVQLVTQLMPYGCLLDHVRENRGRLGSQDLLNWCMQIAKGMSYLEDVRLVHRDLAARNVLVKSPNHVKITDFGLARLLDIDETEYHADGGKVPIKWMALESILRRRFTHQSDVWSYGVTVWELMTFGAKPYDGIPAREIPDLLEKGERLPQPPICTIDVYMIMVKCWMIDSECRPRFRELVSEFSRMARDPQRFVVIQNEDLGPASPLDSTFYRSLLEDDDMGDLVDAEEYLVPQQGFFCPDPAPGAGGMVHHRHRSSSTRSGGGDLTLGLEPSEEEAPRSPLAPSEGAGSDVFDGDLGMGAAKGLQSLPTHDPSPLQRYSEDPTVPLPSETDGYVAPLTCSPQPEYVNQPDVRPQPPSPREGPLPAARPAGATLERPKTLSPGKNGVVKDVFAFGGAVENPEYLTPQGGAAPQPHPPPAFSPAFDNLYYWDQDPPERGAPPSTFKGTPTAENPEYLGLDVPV

`OC[C@H]1O[C@@H](n2cnc3cc(Cl)c(Cl)cc32)[C@H](O)[C@@H]1O` [DRB, 5,6-Dichloro-1-β-D-ribofuranosylbenzimidazole]: in test [1] (FIG. 4a), the “HRG-induced migration of Neu cells” value was “strongly blocked”.

Turning to `C[C@@H](Nc1ncnc2[nH]c(-c3ccc(O)cc3)cc12)c1ccccc1` [PKI166], on ErbB2, the “CGI-27's ability to associate with Shc” value is listed as “did not influence” and the “ErbB2 receptor level in Shc immunoprecipitates” value was “lowered”.

Turning to `C[C@@H]1C[C@@H]([C@H](O)CC2CC(=O)NC(=O)C2)C(=O)[C@@H](C)C1` [cycloheximide], the “migration rate of Neu cells” value in test [1] (compared with NYPD cells, FIG. 4a) is on record as “reduced the migration rate of Neu cells to that of NYPD cells”. The “migration of YD cells, cycloheximide treatment and Memo knock-down compared” value in test [1] (effects not additive, FIG. 7d) is recorded as “blocked to a similar extent”. Moreover, the “HRG-induced migration of Neu cells” value in test [1] (FIG. 4a) is given as “strongly blocked”.

For `COC(=O)Nc1nc2ccc(C(=O)c3cccs3)cc2[nH]1` [nocodazole], the lamellipodia formation result in the test with T47D and SKBr3 cells [2] was “still capable of forming lamellipodia”. Further, the microtubule growth result with T47D and SKBr3 cells [3] is “do not grow microtubules”.

Regarding “EGF: epidermal growth factor (NSDSECPLSHDGYCLHDGVCMYIEALDKYACNCVVGYIGERCQYRDLKWWELR; Epidermal growth factor; UniProt P01133 971-1023, looked up)”, the “stimulation of T47D cell migration by ligand” value (shortened to “stimulation”) in the test with T47D cells is on record as “to a lower degree”.

Turning to FGF2: Fibroblast growth factor (FGF) 2, the “stimulation” value in the test on T47D cells is “stimulated T47D cell migration”.

Regarding insulin: insulin, the “stimulation” value in the test on T47D cells was “to a lower degree”.
